# Reference: patent US11739098B2 (BRISTOL-MYERS SQUIBB COMPANY, priority 2017, dated 2023)
# Key:
# Assay type in all cases: cell-based
# [1] = biological target: T1, human TLR7 (Homo sapiens, UniProt Q9NYK1); assay: TLR7 inhibition reporter assay (HEK-Blue cells, SEAP reporter, gardiquimod stimulation); settings: HEK-Blue cells overexpressing human TLR7, SEAP reporter, gardiquimod 7.5 μM
# T1 construct: host or cells: HEK-Blue cells (HEK293-derived reporter line)
# T1 sequence (Q9NYK1 27-1049): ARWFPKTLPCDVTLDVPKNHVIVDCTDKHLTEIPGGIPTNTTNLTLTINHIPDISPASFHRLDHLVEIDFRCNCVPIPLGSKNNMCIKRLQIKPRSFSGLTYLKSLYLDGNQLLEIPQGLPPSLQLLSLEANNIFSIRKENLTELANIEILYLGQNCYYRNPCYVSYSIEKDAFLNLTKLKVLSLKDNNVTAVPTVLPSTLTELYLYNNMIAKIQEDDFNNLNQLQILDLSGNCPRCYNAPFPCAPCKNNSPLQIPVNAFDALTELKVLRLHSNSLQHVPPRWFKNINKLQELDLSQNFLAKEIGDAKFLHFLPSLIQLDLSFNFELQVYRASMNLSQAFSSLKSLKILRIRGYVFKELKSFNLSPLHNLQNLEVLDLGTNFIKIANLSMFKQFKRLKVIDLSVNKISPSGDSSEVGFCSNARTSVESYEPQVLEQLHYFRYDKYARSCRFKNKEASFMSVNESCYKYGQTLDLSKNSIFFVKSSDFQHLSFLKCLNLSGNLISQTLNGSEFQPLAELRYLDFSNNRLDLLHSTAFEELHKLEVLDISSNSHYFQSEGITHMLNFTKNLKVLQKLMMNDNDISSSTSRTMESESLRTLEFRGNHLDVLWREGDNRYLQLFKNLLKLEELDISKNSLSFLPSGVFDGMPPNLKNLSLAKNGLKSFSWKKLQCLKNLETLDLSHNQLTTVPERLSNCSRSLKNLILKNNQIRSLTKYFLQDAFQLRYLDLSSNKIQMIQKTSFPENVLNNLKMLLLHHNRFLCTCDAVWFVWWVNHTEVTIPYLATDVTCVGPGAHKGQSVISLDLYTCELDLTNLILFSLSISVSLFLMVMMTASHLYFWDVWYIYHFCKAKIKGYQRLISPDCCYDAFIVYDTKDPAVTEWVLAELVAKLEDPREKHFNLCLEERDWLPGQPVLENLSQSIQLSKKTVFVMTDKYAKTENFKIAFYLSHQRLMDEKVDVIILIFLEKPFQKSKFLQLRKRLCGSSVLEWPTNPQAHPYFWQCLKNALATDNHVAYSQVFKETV
# In short: (§1)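 HEK-Blue cells overexpressing the receptor, with NF-κB/AP-1-driven SEAP, were pre-treated 30 min at room temperature with compound (0.05 nM–50 μM), then stimulated with gardiquimod 7.5 μM (TLR7), R848 15.9 μM (TLR8) or ODN2006 5 nM (TLR9). SEAP was read after 22 h at 37 °C as percent inhibition.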
# [2] = biological target: T2, human TLR8 (Homo sapiens, UniProt Q9NR97); assay: TLR8 inhibition reporter assay (HEK-Blue cells, SEAP reporter, R848 stimulation); settings: HEK-Blue cells overexpressing human TLR8, SEAP reporter, R848 15.9 μM
# T2 construct: host or cells: HEK-Blue cells (HEK293-derived reporter line)
# T2 sequence (Q9NR97 27-1041): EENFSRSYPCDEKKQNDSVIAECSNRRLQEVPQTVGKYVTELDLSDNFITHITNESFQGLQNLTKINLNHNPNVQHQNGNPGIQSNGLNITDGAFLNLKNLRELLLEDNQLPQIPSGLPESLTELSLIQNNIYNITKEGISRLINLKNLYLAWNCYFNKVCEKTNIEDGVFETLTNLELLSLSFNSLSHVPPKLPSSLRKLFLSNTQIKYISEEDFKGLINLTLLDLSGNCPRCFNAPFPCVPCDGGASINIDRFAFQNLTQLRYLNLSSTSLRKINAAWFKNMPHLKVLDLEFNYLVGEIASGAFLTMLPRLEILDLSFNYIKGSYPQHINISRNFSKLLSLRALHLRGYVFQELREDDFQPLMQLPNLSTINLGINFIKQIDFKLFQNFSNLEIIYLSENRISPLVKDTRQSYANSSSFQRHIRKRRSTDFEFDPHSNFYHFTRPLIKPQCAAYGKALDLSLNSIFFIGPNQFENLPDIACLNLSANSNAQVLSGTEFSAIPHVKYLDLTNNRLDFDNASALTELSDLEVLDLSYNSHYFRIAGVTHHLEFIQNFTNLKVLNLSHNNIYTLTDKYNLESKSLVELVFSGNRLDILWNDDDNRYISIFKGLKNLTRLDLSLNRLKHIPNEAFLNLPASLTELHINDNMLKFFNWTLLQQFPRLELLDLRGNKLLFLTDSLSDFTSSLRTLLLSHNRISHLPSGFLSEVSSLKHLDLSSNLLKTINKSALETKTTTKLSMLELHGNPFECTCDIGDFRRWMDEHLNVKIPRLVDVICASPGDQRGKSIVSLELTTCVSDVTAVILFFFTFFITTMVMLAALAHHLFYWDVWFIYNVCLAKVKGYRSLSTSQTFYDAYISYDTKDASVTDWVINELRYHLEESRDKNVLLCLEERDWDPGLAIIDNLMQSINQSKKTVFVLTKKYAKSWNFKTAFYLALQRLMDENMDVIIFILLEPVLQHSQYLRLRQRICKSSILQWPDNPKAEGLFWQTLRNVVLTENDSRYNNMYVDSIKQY
# In short: as §1
# [3] = biological target: T3, human TLR9 (Homo sapiens, UniProt Q9NR96); assay: TLR9 inhibition reporter assay (HEK-Blue cells, SEAP reporter, ODN2006 stimulation); settings: HEK-Blue cells overexpressing human TLR9, SEAP reporter, ODN2006 5 nM
# T3 construct: host or cells: HEK-Blue cells (HEK293-derived reporter line)
# T3 sequence (Q9NR96 26-1032): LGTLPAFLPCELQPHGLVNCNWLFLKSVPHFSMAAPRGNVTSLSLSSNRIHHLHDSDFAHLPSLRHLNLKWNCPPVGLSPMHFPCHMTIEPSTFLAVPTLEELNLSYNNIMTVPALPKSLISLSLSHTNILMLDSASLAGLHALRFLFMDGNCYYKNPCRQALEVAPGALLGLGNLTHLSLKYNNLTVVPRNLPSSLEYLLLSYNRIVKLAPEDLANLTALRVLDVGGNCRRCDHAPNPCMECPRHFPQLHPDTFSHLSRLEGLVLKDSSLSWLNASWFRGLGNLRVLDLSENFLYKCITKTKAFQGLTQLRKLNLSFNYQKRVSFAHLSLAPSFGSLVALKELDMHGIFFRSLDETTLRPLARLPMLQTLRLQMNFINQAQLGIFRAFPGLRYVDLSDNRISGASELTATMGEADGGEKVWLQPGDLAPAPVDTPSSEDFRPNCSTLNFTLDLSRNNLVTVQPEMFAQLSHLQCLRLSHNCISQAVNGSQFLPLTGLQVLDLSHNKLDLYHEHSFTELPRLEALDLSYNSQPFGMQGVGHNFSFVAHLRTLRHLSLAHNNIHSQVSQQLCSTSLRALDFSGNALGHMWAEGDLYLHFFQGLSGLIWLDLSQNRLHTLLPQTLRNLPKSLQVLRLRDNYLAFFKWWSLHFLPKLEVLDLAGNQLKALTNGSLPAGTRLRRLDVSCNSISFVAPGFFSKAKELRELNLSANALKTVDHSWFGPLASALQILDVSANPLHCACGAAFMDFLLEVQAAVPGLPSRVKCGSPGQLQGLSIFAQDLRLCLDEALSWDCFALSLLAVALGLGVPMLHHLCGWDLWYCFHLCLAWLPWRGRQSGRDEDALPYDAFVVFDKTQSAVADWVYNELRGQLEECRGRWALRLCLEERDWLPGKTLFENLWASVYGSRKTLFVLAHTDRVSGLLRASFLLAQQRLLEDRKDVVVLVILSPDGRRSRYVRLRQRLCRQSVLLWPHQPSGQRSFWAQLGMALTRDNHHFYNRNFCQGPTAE
# In short: as §1
Structure (SMILES),IC50 [1],IC50 [2],IC50 [3]
"Cc1cc2nc(-c3[nH]c4ccc(C5CCNCC5)cc4c3C(C)C)ccn2n1 [Example 149, 5-(3-isopropyl-5-(piperidin-4-yl)-1H-indol-2-yl)-2-methylpyrazolo[1,5-a]pyrimidine]",0.1 to 1 µM,1 to 50 µM,1 to 50 µM
"Cc1cn2cc(-c3[nH]c4ccc(C5CCN(C(=O)CC(C)(C)O)CC5)cc4c3CC(F)F)ccc2n1 [Example 607, 1-(4-(3-(2,2-difluoroethyl)-2-(2-methylimidazo[1,2-a]pyridin-6-yl)-1H-indol-5-yl)piperidin-1-yl)-3-hydroxy-3-methylbutan-1-one]",0.1 to 1 µM,1 to 50 µM,> 50 µM
"CC(C)c1c(-c2cccn3ncnc23)[nH]c2ccc(C3CCN(C(=O)CN(C)C)CC3)cc12 [Example 514, 1-(4-(2-([1,2,4]triazolo[1,5-a]pyridin-8-yl)-3-isopropyl-1H-indol-5-yl)piperidin-1-yl)-2-(dimethylamino)ethan-1-one]",0.1 to 1 µM,0.1 to 1 µM,1 to 50 µM
"CC(C)c1c(-c2ccn3ncnc3c2)[nH]c2ccc(C3CCNCC3)cc12 [Example 197, 7-(3-isopropyl-5-(piperidin-4-yl)-1H-indol-2-yl)-[1,2,4]triazolo[1,5-a]pyridine]",< 0.1 µM,< 0.1 µM,1 to 50 µM
"CC(C)c1c(-c2ccnc3[nH]ncc23)[nH]c2cc(F)c(C3CCN(C4CCN(C(C)C)CC4)CC3)cc12 [Example 830, 4-(6-fluoro-3-isopropyl-5-(1′-isopropyl-[1,4′-bipiperidin]-4-yl)-1H-indol-2-yl)-1H-pyrazolo[3,4-b]pyridine]",< 0.1 µM,< 0.1 µM,< 0.1 µM
"CC(C)c1c(-c2ccc3ncnn3n2)[nH]c2ccc(C3CCN(C4CCOCC4)CC3)cc12 [Example 683, 6-(3-isopropyl-5-(1-(tetrahydro-2H-pyran-4-yl)piperidin-4-yl)-1H-indol-2-yl)-[1,2,4]triazolo[1,5-b]pyridazine]",< 0.1 µM,< 0.1 µM,1 to 50 µM
"CC(C)c1c(-c2ccn3nnnc3c2)[nH]c2ccc(C3CCNCC3)cc12 [Example 82, 7-(3-isopropyl-5-(piperidin-4-yl)-1H-indol-2-yl)tetrazolo[1,5-a]pyridine]",< 0.1 µM,0.1 to 1 µM,1 to 50 µM
"Cc1c(-c2ccnc3[nH]ccc23)[nH]c2ccc(C3CCNCC3)cc12 [Example 2, 4-(3-methyl-5-(piperidin-4-yl)-1H-indol-2-yl)-1H-pyrrolo[2,3-b]pyridine]",< 0.1 µM,< 0.1 µM,1 to 50 µM
"CNC(=O)CN1CCC(c2ccc3[nH]c(-c4cnc5ncnn5c4)c(C(C)C)c3c2)CC1 [Example 423, 2-(4-(2-([1,2,4]triazolo[1,5-a]pyrimidin-6-yl)-3-isopropyl-1H-indol-5-yl)piperidin-1-yl)-N-methylacetamide]",< 0.1 µM,< 0.1 µM,1 to 50 µM
"Cc1cn2c(C)cc(-c3[nH]c4ccc(C5CCNCC5)cc4c3C(C)C)cc2n1 [Example 160, 7-(3-isopropyl-5-(piperidin-4-yl)-1H-indol-2-yl)-2,5-dimethylimidazo[1,2-a]pyridine]",0.1 to 1 µM,0.1 to 1 µM,0.1 to 1 µM

# Further lines, results first:
IC50 [1],IC50 [2],IC50 [3],Structure (SMILES)
< 0.1 µM,< 0.1 µM,0.1 to 1 µM,"Cc1ncc(CN2CCC(c3ccc4[nH]c(-c5ccnc6[nH]ncc56)c(C(C)C)c4c3)CC2)[nH]1 [Example 869, 4-(3-isopropyl-5-(1-((2-methyl-1H-imidazol-5-yl)methyl)piperidin-4-yl)-1H-indol-2-yl)-1H-pyrazolo[3,4-b]pyridine]"
< 0.1 µM,< 0.1 µM,0.1 to 1 µM,"CC(C)c1c(-c2ccnc3[nH]ncc23)[nH]c2ccc(C3CCN(C4CCNCC4O)CC3)cc12 (stereo not drawn) [Example 804, 4-(3-isopropyl-2-(1H-pyrazolo[3,4-b]pyridin-4-yl)-1H-indol-5-yl)-[1,4′-bipiperidin]-3′-ol]"
< 0.1 µM,0.1 to 1 µM,1 to 50 µM,"Cc1cc2nccn2cc1-c1[nH]c2ccc(C3CCN(CC(=O)N(C)C)CC3)cc2c1C(C)C [Example 431, 2-(4-(3-isopropyl-2-(7-methylimidazo[1,2-a]pyridin-6-yl)-1H-indol-5-yl)piperidin-1-yl)-N,N-dimethylacetamide]"
< 0.1 µM,< 0.1 µM,0.1 to 1 µM,"CC(C)c1c(-c2ccc3[nH]nc(N)c3c2)[nH]c2ccc(C3CCNCC3)cc12 [Example 93, 5-(3-isopropyl-5-(piperidin-4-yl)-1H-indol-2-yl)-1H-indazol-3-amine]"
< 0.1 µM,< 0.1 µM,1 to 50 µM,"Cc1cc(-c2[nH]c3ccc(C4CCNCC4)cc3c2C(C)C)nn2ncnc12 [Example 30, 6-(3-isopropyl-5-(piperidin-4-yl)-1H-indol-2-yl)-8-methyl-[1,2,4]triazolo[1,5-b]pyridazine]"
